# Experiments:
# Assay type in all cases: cell-based
# [1] = system: N-Myc-Max transcription activity (LNCaP-NMYC cells); assay: Myc transcription assay (Cignal Myc reporter, luciferase) in LNCaP-NMYC cells; details: LNCaP-NMYC; for transcription inhibition activity (in words): screened at 10 µM and 5 µM
# Protocol: To determine the optimal substitutions on the free phenyl ring, we used the active scaffold for a second substructure search against the ZINC15 database to identify a set of 181 analogues for further validation (VPC-70617 to -70799, presented in Supplementary Table S1). Compounds were tested for their inhibition of a N-Myc-Max luciferase transcription activity assay at 5 and 10 µM Figure 2a. Herein, we inspected all the proposed substitutions on the scaffold to discern the features required to construct a possible SAR model for inhibitors targeting N-Myc-Max/DBD complex (Figure 2b).
# LNCaP-NMYC cells were transfected using TransIT-2020 transfection reagents per the manufacturer’s protocol. Cells were plated at a density of 10,000 cells per well of a 96-well plate. Following 24 h treatment with 5 µM or 10 µM of the compounds, the Myc reporter activity was measured using the Cignal Myc Reporter Assay Kit from Qiagen (#336841) (Hilden, Germany) per the manufacturer’s instructions.
# IMR32 cells = assay: Cell viability (CellTiter-Glo), IMR32; details: Homo sapiens, IMR-32
# Protocol: (§1) The 54 compounds were tested at 10 µM for their inhibition of the IMR32 human neuroblastoma cell line, in which the MYCN gene is amplified and actively expressed (Table 3). HO15.19 cell line (Myc-negative) was used in parallel as a compound specificity control.
# (§2) Viability of N-Myc positive (IMR32and NCI-H660) and negative (HO15.19) cells were determined using the CellTiter-Glo Luminescent Cell Viability Assay (Promega cat. G7570) (Madison, WI, USA). Cells were seeded into a 96-well white plate with a clear bottom: 10,000 cells per well for the IMR32 cells cultured in EMEM supplemented with 10% FBS, 2000 HO15.19 cells per well in Eagle’s minimum essential medium (EMEM) supplemented with 10% FBS, and 2000 cells per well for the NCI-H660 neuroendocrine cells cultured in RPMI supplemented 5% FBS, 1% Insulin-Transferrin-Selenium (Thermo Fisher, 41400-045), 10nM b-estradiol (Sigma, E8875), 10nM hydrocortisone (Sigma H0888) and 1% matrigel. Following 24 h incubation, the cells were treated with serial dilutions of the derivatives along with the respective parental compound starting at 25 μM for 72 h. Cell Titer Glo was added to each well at a ratio of 1:1 and incubated on a shaker at RT for 2 min. Luminescence and IC50 was measured with the TECAN InfiniteM200 plate reader (Männedorf, Switzerland).
# HO15.19 cells = assay: Cell viability counter-screen (CellTiter-Glo), Myc-negative HO15.19; details: Rattus norvegicus, HO15.19, 10 µM; Myc-negative specificity control
# Protocol: as §1, §2
compound,measurement,setting,value
N#Cc1ccc(NNC(=O)c2ccc(Cl)c(F)c2)c(C(F)(F)F)c1 [compound 70621],transcription inhibition activity (in words),[1],good inhibition at both concentrations tested
same,inhibition at 10 µM,IMR32 cells,98.8%
same,inhibition at 10 µM,HO15.19 cells,68.6%
N#Cc1ccc(NNC(=O)c2ccc(Cl)c(Br)c2)c(C(F)(F)F)c1 [compound 70622],transcription inhibition activity (in words),[1],good inhibition at both concentrations tested
same,inhibition at 10 µM,IMR32 cells,99.4%
same,inhibition at 10 µM,HO15.19 cells,36.4%
N#Cc1ccc(NNC(=O)c2ccc(Cl)cc2O)c(C(F)(F)F)c1 [compound 70633],transcription inhibition activity (in words),[1],activity was maintained
same,inhibition at 10 µM,IMR32 cells,93.6%
same,inhibition at 10 µM,HO15.19 cells,77%
N#Cc1ccc(NNC(=O)c2ccc(Br)c(Cl)c2)c(C(F)(F)F)c1 [compound 70635],transcription inhibition activity (in words),[1],strong increase in inhibition activity
same,inhibition at 10 µM,IMR32 cells,7.5%
same,inhibition at 10 µM,HO15.19 cells,11.8%
N#Cc1ccc(NNC(=O)c2cc(F)cc(F)c2)c(C(F)(F)F)c1 [compound 70639],transcription inhibition activity (in words),[1],better inhibition activity
same,inhibition at 10 µM,IMR32 cells,60.2%
same,inhibition at 10 µM,HO15.19 cells,66.1%
N#Cc1ccc(NNC(=O)c2cc(Cl)ccc2O)c(C(F)(F)F)c1 [compound 70640],transcription inhibition activity (in words),[1],better inhibition activity
same,inhibition at 10 µM,IMR32 cells,93.5%
same,inhibition at 10 µM,HO15.19 cells,76.7%
N#Cc1ccc(NNC(=O)c2cc(F)cc(Cl)c2)c(C(F)(F)F)c1 [compound 70644],transcription inhibition activity (in words),[1],better inhibition activity
same,inhibition at 10 µM,IMR32 cells,88.3%
same,inhibition at 10 µM,HO15.19 cells,69.5%
N#Cc1ccc(NNC(=O)c2ccc(F)c(C(F)(F)F)c2)c(C(F)(F)F)c1 [compound 70647],transcription inhibition activity (in words),[1],strong increase in inhibition activity
same,inhibition at 10 µM,IMR32 cells,88.6%
same,inhibition at 10 µM,HO15.19 cells,70.9%
N#Cc1ccc(NNC(=O)c2cc(Cl)cc(Br)c2)c(C(F)(F)F)c1 [compound 70650],transcription inhibition activity (in words),[1],very strong transcription inhibition
same,inhibition at 10 µM,IMR32 cells,92.1%
same,inhibition at 10 µM,HO15.19 cells,80.2%
N#Cc1ccc(NNC(=O)c2cc(Cl)cc(Cl)c2)c(C(F)(F)F)c1 [compound 70652],transcription inhibition activity (in words),[1],very strong transcription inhibition
same,inhibition at 10 µM,IMR32 cells,92.5%
same,inhibition at 10 µM,HO15.19 cells,80.7%
N#Cc1ccc(NNC(=O)c2ccc(SC(F)(F)F)cc2)c(C(F)(F)F)c1 [compound 70658],transcription inhibition activity (in words),[1],active
same,inhibition at 10 µM,IMR32 cells,46.9%
same,inhibition at 10 µM,HO15.19 cells,57.2%
N#Cc1ccc(NNC(=O)c2cc(F)c(F)cc2Cl)c(C(F)(F)F)c1 [compound 70659],transcription inhibition activity (in words),[1],strong increase in inhibition activity
same,inhibition at 10 µM,IMR32 cells,31%
same,inhibition at 10 µM,HO15.19 cells,31.5%
N#Cc1ccc(NNC(=O)c2ccc(Cl)c(C#N)c2)c(C(F)(F)F)c1 [compound 70662],transcription inhibition activity at 5 µM (in words),[1],recovered the activity
same,inhibition at 10 µM,IMR32 cells,11%
same,inhibition at 10 µM,HO15.19 cells,9.9%
N#Cc1ccc(NNC(=O)c2ccc([N+](=O)[O-])cc2)c(C(F)(F)F)c1 [compound 70663],transcription inhibition activity (in words),[1],maintained good transcription inhibition activity
same,inhibition at 10 µM,IMR32 cells,28.9%
same,inhibition at 10 µM,HO15.19 cells,7.9%
N#Cc1cccc(C(=O)NNc2ccc(C#N)cc2C(F)(F)F)c1 [compound 70672],inhibition at 10 µM,IMR32 cells,18%
same,inhibition at 10 µM,HO15.19 cells,8.1%
Cc1cc(Cl)cc(C(=O)NNc2ccc(C#N)cc2C(F)(F)F)c1 [compound 70675],transcription inhibition activity (in words),[1],better inhibition activity
same,inhibition at 10 µM,IMR32 cells,65.4%
same,inhibition at 10 µM,HO15.19 cells,65.9%
Cc1cc(C(=O)NNc2ccc(C#N)cc2C(F)(F)F)cc(C)c1F [compound 70679],transcription inhibition activity (in words),[1],strong increase in inhibition activity
same,inhibition at 10 µM,IMR32 cells,1.1%
same,inhibition at 10 µM,HO15.19 cells,7.3%
N#Cc1ccc(NNC(=O)c2ccc(F)c(Cl)c2)c(C(F)(F)F)c1 [compound 70680],transcription inhibition activity (in words),[1],strong increase in inhibition activity
same,inhibition at 10 µM,IMR32 cells,52.9%
same,inhibition at 10 µM,HO15.19 cells,64%
N#Cc1ccc(NNC(=O)c2ccc(SC(F)F)cc2)c(C(F)(F)F)c1 [compound 70682],inhibition at 10 µM,IMR32 cells,11%
same,inhibition at 10 µM,HO15.19 cells,22.9%
COc1cc(C(=O)NNc2ccc(C#N)cc2C(F)(F)F)ccc1Cl [compound 70685],transcription inhibition activity at 5 µM (in words),[1],recovered the activity
same,inhibition at 10 µM,IMR32 cells,24.7%
same,inhibition at 10 µM,HO15.19 cells,15.2%
N#Cc1ccc(NNC(=O)c2cc(F)c(F)c(F)c2)c(C(F)(F)F)c1 [compound 70686],transcription inhibition activity (in words),[1],strong increase in inhibition activity
same,inhibition at 10 µM,IMR32 cells,82.2%
same,inhibition at 10 µM,HO15.19 cells,75.8%
N#Cc1ccc(NNC(=O)c2ccc(C(F)(F)F)c(F)c2)c(C(F)(F)F)c1 [compound 70693],transcription inhibition activity (in words),[1],strong increase in inhibition activity
same,inhibition at 10 µM,IMR32 cells,22.4%
same,inhibition at 10 µM,HO15.19 cells,0.2%
N#Cc1ccc(NNC(=O)c2cc(Cl)c(N)c(Cl)c2)c(C(F)(F)F)c1 [compound 70695],transcription inhibition activity (in words),[1],better inhibition activity
same,inhibition at 10 µM,IMR32 cells,77.1%
same,inhibition at 10 µM,HO15.19 cells,41.2%
N#Cc1ccc(NNC(=O)c2ccc(F)c(C#N)c2)c(C(F)(F)F)c1 [compound 70696],transcription inhibition activity (in words),[1],strong increase in inhibition activity
same,inhibition at 10 µM,IMR32 cells,15.1%
same,inhibition at 10 µM,HO15.19 cells,13.2%
N#Cc1ccc(Cl)c(C(=O)NNc2ccc(C#N)cc2C(F)(F)F)c1 [compound 70698],transcription inhibition activity (in words),[1],high transcription inhibition activity
same,inhibition at 10 µM,IMR32 cells,35.4%
same,inhibition at 10 µM,HO15.19 cells,27.3%
COc1cc(Cl)cc(C(=O)NNc2ccc(C#N)cc2C(F)(F)F)c1 [compound 70700],transcription inhibition activity (in words),[1],better inhibition activity
same,inhibition at 10 µM,IMR32 cells,60.5%
same,inhibition at 10 µM,HO15.19 cells,42%
N#Cc1ccc(NNC(=O)c2cccc(I)c2)c(C(F)(F)F)c1 [compound 70703],transcription inhibition activity (in words),[1],better inhibition activity
same,inhibition at 10 µM,IMR32 cells,18.5%
same,inhibition at 10 µM,HO15.19 cells,13.5%
N#Cc1ccc(NNC(=O)c2ccc(C(F)(F)F)cc2Cl)c(C(F)(F)F)c1 [compound 70704],transcription inhibition activity (in words),[1],strong increase in inhibition activity
same,inhibition at 10 µM,IMR32 cells,10.6%
same,inhibition at 10 µM,HO15.19 cells,13.6%
N#Cc1ccc(NNC(=O)c2ccc(C(F)(F)F)c(Cl)c2)c(C(F)(F)F)c1 [compound 70705],transcription inhibition activity (in words),[1],good inhibition at both concentrations tested
same,inhibition at 10 µM,IMR32 cells,60.7%
same,inhibition at 10 µM,HO15.19 cells,61.8%
N#Cc1ccc(NNC(=O)c2ccc(Cl)cc2C(F)(F)F)c(C(F)(F)F)c1 [compound 70706],transcription inhibition activity (in words),[1],activity was maintained
same,inhibition at 10 µM,IMR32 cells,54.3%
same,inhibition at 10 µM,HO15.19 cells,65.6%
N#Cc1ccc(NNC(=O)c2ccc(F)c(F)c2F)c(C(F)(F)F)c1 [compound 70715],transcription inhibition activity (in words),[1],strong increase in inhibition activity
same,inhibition at 10 µM,IMR32 cells,14.4%
same,inhibition at 10 µM,HO15.19 cells,39.9%
N#Cc1ccc(NNC(=O)c2c(O)cc(Cl)cc2Cl)c(C(F)(F)F)c1 [compound 70719],transcription inhibition activity (in words),[1],recovered the inhibition activity
same,inhibition at 10 µM,IMR32 cells,95%
same,inhibition at 10 µM,HO15.19 cells,76.5%
N#Cc1ccc(NNC(=O)c2cc(Cl)cc(C(F)(F)F)c2)c(C(F)(F)F)c1 [compound 70722],transcription inhibition activity (in words),[1],very strong transcription inhibition
same,inhibition at 10 µM,IMR32 cells,94.7%
same,inhibition at 10 µM,HO15.19 cells,79.3%
